Test results reported in paper doi:10.1101/692707v2 (biorxiv, 2020).

Columns and labels:
Type in all cases: binding
[1] = target: T1, YdiU^475 (Escherichia coli, UniProt P77649); assay: SPR
T1 sequence (P77649 1-475): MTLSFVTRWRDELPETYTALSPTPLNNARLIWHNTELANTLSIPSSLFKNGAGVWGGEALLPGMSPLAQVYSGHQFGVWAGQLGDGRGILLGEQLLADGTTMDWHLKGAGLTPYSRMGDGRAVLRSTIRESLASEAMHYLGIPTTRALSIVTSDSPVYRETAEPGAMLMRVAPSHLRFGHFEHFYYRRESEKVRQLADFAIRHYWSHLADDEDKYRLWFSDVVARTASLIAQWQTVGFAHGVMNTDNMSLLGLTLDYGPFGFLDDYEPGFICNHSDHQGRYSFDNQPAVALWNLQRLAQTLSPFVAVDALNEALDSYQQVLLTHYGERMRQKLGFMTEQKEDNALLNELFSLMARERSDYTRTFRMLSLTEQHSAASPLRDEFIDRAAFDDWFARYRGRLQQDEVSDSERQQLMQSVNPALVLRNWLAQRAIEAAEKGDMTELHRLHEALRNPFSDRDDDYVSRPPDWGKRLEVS

[2] = target: T1, YdiU^475; assay: X-ray crystal structure; details: Mg2+, active site
[3] = target: T1, YdiU^475; assay: DSF on Uncle platform; details: 2 mM Mn2+, Tm of complex, not a shift, apo 38.3 °C (with 5 mM EDTA)

Compound `Nc1ncnc2c1ncn2[C@@H]1O[C@H](COP(=O)(O)OP(=O)(O)NP(=O)(O)O)[C@@H](O)[C@H]1O` [AMPNPP] has a Kd [1] of roughly 18 µM.
`Nc1ncnc2c1ncn2[C@@H]1O[C@H](COP(=O)(O)O)[C@@H](O)[C@H]1O` [AMP] was tested, and the X-ray crystal structure ([2]; together with imidodiphosphate) was 6III (YdiU-AMP-imidodiphosphonic acid).
With `Nc1ncnc2c1ncn2[C@@H]1O[C@H](COP(=O)(O)OP(=O)(O)OP(=O)(O)O)[C@@H](O)[C@H]1O` [ATP] the Tm1 ([3]; 1 mM ATP) was 50.3 °C.
Work on `O=c1ccn([C@@H]2O[C@H](COP(=O)(O)NP(=O)(O)OP(=O)(O)O)[C@@H](O)[C@H]2O)c(=O)[nH]1` [UMPNPP] yielded a Kd [1] of roughly 0.14 µM.
With `O=c1ccn([C@@H]2O[C@H](COP(=O)(O)OP(=O)(O)OP(=O)(O)O)[C@@H](O)[C@H]2O)c(=O)[nH]1` [UTP] the Tm1 ([3]; 1 mM UTP) was 40.6 °C.
For `O=P(O)(O)NP(=O)(O)O` [imidodiphosphonic acid], the X-ray crystal structure ([2]; together with AMP) was 6III (YdiU-AMP-imidodiphosphonic acid).
